According to patent publication US11524966B1 (Valo Early Discovery, Inc., priority 2017, dated 2022):

Molecular target: T1, USP28 (His-tagged USP28-FL-mammalian) (Homo sapiens, UniProt Q96RU2)
T1 construct: Expression of USP28 (1-1077)-TEV-6*His (pTT5 vector); made in house; host or cells: Expi293f cells (pTT5 vector)
T1 sequence (Q96RU2 1-1077): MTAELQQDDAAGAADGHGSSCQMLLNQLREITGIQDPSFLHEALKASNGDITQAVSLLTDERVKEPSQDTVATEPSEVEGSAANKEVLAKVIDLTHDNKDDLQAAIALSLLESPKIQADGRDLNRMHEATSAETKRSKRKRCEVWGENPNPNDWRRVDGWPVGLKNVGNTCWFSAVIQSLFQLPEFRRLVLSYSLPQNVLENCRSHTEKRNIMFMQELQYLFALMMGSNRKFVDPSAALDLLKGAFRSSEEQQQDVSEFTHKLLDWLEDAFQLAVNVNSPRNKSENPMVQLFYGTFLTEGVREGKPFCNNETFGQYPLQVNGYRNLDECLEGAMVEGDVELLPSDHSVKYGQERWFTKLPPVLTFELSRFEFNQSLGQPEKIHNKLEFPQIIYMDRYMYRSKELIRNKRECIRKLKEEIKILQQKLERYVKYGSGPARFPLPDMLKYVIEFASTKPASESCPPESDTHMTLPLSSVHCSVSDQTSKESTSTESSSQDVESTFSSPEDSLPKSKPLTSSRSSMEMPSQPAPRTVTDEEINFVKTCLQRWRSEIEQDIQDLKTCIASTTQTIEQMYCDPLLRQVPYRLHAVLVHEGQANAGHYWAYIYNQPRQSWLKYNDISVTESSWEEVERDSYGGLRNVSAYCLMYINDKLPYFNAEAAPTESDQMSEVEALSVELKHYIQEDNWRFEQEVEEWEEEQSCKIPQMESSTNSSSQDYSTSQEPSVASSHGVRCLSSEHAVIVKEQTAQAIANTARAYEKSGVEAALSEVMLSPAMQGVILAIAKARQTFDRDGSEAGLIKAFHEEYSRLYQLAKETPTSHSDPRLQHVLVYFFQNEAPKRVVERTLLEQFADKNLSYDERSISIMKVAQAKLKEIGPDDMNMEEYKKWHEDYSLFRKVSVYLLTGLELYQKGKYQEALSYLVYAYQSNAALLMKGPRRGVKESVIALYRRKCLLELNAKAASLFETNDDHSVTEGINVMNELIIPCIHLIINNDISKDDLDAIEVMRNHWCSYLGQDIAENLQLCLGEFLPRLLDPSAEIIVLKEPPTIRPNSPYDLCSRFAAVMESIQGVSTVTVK
Test: Ubiquitin-Rhodamine 110 Assay for USP28 Activity, Example A-1(a)
Type: biochemical
Conditions: Ubiquitin-Rhodamine 110 assay, Example A-1(a); read-out: USP28 A-1(a) IC50 range
Outline: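 Full-length His-tagged human USP28 (1-1077, Expi293f-expressed), […], with 25 nM Ub-Rh110 (<<Km) in pH 8.0 Tris buffer with BME, BGG, Triton X-100. 10-point dilutions (25 μM-1.3 nM), 45 min at room temperature, citric acid stop, fluorescence 485/535 nm; IC50 by 4-parameter fit.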

**Q.** `Cc1ccc2c(N)c(C(=O)N[C@H]3COc4cc(N5C[C@@H](N)[C@@H](F)C5)ccc4C3)sc2n1` (single isomer, unassigned) [Example 3-5] was tested. Which IC50 did it give?
**A.** 1 to 50 nM

**Q.** How did the IC50 turn out when `Cc1ccc2c(N)c(C(=O)N[C@H]3COc4cc(N5C[C@@H](F)[C@@H](N)C5)ccc4C3)sc2n1` (single isomer, unassigned) [Example 3-6] was run?
**A.** 1 to 50 nM

**Q.** For `COC[C@@H]1CN(c2nc3c(cc2F)C[C@H](NC(=O)c2sc4nc(C)ccc4c2N)CC3)C[C@@H]1N` (single isomer, unassigned) [Example 302], which IC50 is on record?
**A.** 50 to 200 nM

**Q.** Which IC50 does the source give for `COC[C@H]1CN(c2nc3c(cc2F)C[C@H](NC(=O)c2sc4nc(C)ccc4c2N)CC3)C[C@H]1N` (single isomer, unassigned) [Example 303] here?
**A.** 200 to 2000 nM

**Q.** `CO[C@H]1CCN(c2ccc3c(n2)CC[C@H](NC(=O)c2sc4nc(C)ccc4c2N)C3)C[C@@H]1N` (single isomer, unassigned) [Example 315] was tested. Which IC50 did it give?
**A.** 50 to 200 nM

**Q.** `CO[C@@H]1CCN(c2ccc3c(n2)CC[C@H](NC(=O)c2sc4nc(C)ccc4c2N)C3)C[C@H]1N` (single isomer, unassigned) [Example 316] was tested. Which IC50 did it give?
**A.** 50 to 200 nM

**Q.** For `CCOC1CN(c2ccc3c(c2)OC[C@H](NC(=O)c2sc4nc(C)cc(C)c4c2N)C3)C[C@@H]1N` (stereo in doubt) [Example 323, 3-amino-N-[(3R)-7-[(3S,4R)-3-amino-4-ethoxypyrrolidin-1-yl]-3,4-dihydro-2H-1-benzopyran-3-yl]-4,6-dimethylthieno[2,3-b]pyridine-2-carboxamide], which IC50 is on record?
**A.** 1 to 50 nM

**Q.** Which IC50 does the source give for `COC[C@@]1(C)CN(c2ccc3c(n2)CC[C@H](NC(=O)c2sc4nc(C)ccc4c2N)C3)CC1N` (stereo in doubt) [Example 343, 3-amino-N-[(6S)-2-[(3S,4S)-4-amino-3-(methoxymethyl)-3-methylpyrrolidin-1-yl]-5,6,7,8-tetrahydroquinolin-6-yl]-6-methylthieno[2,3-b]pyridine-2-carboxamide] here?
**A.** 50 to 200 nM

**Q.** Which IC50 does the source give for `COC[C@H]1C[C@H](N)CN1c1ccc2c(c1)OC[C@H](NC(=O)c1sc3nc(C)ccc3c1N)C2` [Example 261, 3-amino-N-[(3R)-7-[(2R,4S)-4-amino-2-(methoxymethyl)pyrrolidin-1-yl]-3,4-dihydro-2H-1-benzopyran-3-yl]-6-methylthieno[2,3-b]pyridine-2-carboxamide] here?
**A.** 1 to 50 nM

**Q.** Which IC50 does the source give for `COC[C@H]1C[C@@H](N)CN1c1ccc2c(c1)OC[C@H](NC(=O)c1sc3nc(C)ccc3c1N)C2` [Example 262, 3-amino-N-[(3R)-7-[(2R,4R)-4-amino-2-(methoxymethyl)pyrrolidin-1-yl]-3,4-dihydro-2H-1-benzopyran-3-yl]-6-methylthieno[2,3-b]pyridine-2-carboxamide] here?
**A.** 1 to 50 nM

**Q.** With `COC[C@@H]1C[C@H](N)CN1c1ccc2c(c1)OC[C@H](NC(=O)c1sc3nc(C)ccc3c1N)C2` [Example 263, 3-amino-N-[(3R)-7-[(2S,4S)-4-amino-2-(methoxymethyl)pyrrolidin-1-yl]-3,4-dihydro-2H-1-benzopyran-3-yl]-6-methylthieno[2,3-b]pyridine-2-carboxamide] as the molecule, how does the IC50 read?
**A.** 1 to 50 nM

**Q.** How did the IC50 turn out when `N#Cc1c(N2CC3CCC(C2)N3)cc2c(c1F)C[C@@H](NC(=O)c1cnc3c(c1)[C@@H]1C[C@@H]1CN3)CO2` [Example 264, (6aS,7aR)-N-[(3R)-6-cyano-7-{3,8-diazabicyclo[3.2.1]octan-3-yl}-5-fluoro-3,4-dihydro-2H-1-benzopyran-3-yl]-5H,6H,6aH,7H,7aH-cyclopropa[c]1,8-naphthyridine-2-carboxamide] was run?
**A.** 1 to 50 nM

**Q.** For `N#Cc1c(N2CC3CCC(C2)N3)cc2c(c1F)C[C@@H](NC(=O)c1cnc3c(c1)[C@H]1C[C@H]1CN3)CO2` [Example 265, (6aR,7aS)-N-[(3R)-6-cyano-7-{3,8-diazabicyclo[3.2.1]octan-3-yl}-5-fluoro-3,4-dihydro-2H-1-benzopyran-3-yl]-5H,6H,6aH,7H,7aH-cyclopropa[c]1,8-naphthyridine-2-carboxamide], which IC50 is on record?
**A.** 50 to 200 nM

**Q.** `CO[C@H]1CN(c2ccc3c(n2)CC[C@H](NC(=O)c2sc4nc(C)cnc4c2N)C3)C[C@@H]1NC(C)=O` [Example 266, 7-amino-N-[(6S)-2-[(3S,4S)-3-acetamido-4-methoxypyrrolidin-1-yl]-5,6,7,8-tetrahydroquinolin-6-yl]-3-methylthieno[2,3-b]pyrazine-6-carboxamide] was tested. Which IC50 did it give?
**A.** 200 to 2000 nM

**Q.** `CCO[C@@H]1CN(c2ccc3c(c2)CC[C@H](NC(=O)c2sc4nc(C)ccc4c2N)C3)C[C@@H]1N` [Example 267, 3-amino-N-[(2S)-6-[(3S,4R)-3-amino-4-ethoxypyrrolidin-1-yl]-1,2,3,4-tetrahydronaphthalen-2-yl]-6-methylthieno[2,3-b]pyridine-2-carboxamide] was tested. Which IC50 did it give?
**A.** 50 to 200 nM

**Q.** With `CCO[C@H]1CN(c2ccc3c(c2)CC[C@H](NC(=O)c2sc4nc(C)ccc4c2N)C3)C[C@H]1N` [Example 268, 3-amino-N-[(2S)-6-[(3R,4S)-3-amino-4-ethoxypyrrolidin-1-yl]-1,2,3,4-tetrahydronaphthalen-2-yl]-6-methylthieno[2,3-b]pyridine-2-carboxamide] as the molecule, how does the IC50 read?
**A.** 50 to 200 nM

**Q.** `CO[C@@H]1CN(c2ccc3c(n2)CC[C@H](NC(=O)c2sc4nc(C)ccc4c2N)C3)C[C@@H]1N` [Example 269, 3-amino-N-[(6S)-2-[(3S,4R)-3-amino-4-methoxypyrrolidin-1-yl]-5,6,7,8-tetrahydroquinolin-6-yl]-6-methylthieno[2,3-b]pyridine-2-carboxamide] was tested. Which IC50 did it give?
**A.** 50 to 200 nM

**Q.** Which IC50 does the source give for `CO[C@H]1CN(c2ccc3c(n2)CC[C@H](NC(=O)c2sc4nc(C)ccc4c2N)C3)C[C@H]1N` [Example 270, 3-amino-N-[(6S)-2-[(3R,4S)-3-amino-4-methoxypyrrolidin-1-yl]-5,6,7,8-tetrahydroquinolin-6-yl]-6-methylthieno[2,3-b]pyridine-2-carboxamide] here?
**A.** 50 to 200 nM

**Q.** For `COC[C@@H]1CN(c2ccc3c(c2)OC[C@H](NC(=O)c2sc4nc(C)cc(C)c4c2N)C3)C[C@@H]1N` [Example 275, 3-amino-N-[(3R)-7-[(3R,4R)-3-amino-4-(methoxymethyl)pyrrolidin-1-yl]-3,4-dihydro-2H-1-benzopyran-3-yl]-4,6-dimethylthieno[2,3-b]pyridine-2-carboxamide], which IC50 is on record?
**A.** 1 to 50 nM

**Q.** With `COC[C@H]1CN(c2ccc3c(c2)OC[C@H](NC(=O)c2sc4nc(C)cc(C)c4c2N)C3)C[C@H]1N` [Example 276, 3-amino-N-[(3R)-7-[(3S,4S)-3-amino-4-(methoxymethyl)pyrrolidin-1-yl]-3,4-dihydro-2H-1-benzopyran-3-yl]-4,6-dimethylthieno[2,3-b]pyridine-2-carboxamide] as the molecule, how does the IC50 read?
**A.** 1 to 50 nM

**Q.** How did the IC50 turn out when `COC[C@@H]1CN(c2cc(F)c3c(c2F)OC[C@H](NC(=O)c2sc4nc(C)cc(C)c4c2N)C3)C[C@@H]1N` [Example 277, 3-amino-N-[(3R)-7-[(3R,4R)-3-amino-4-(methoxymethyl)pyrrolidin-1-yl]-5,8-difluoro-3,4-dihydro-2H-1-benzopyran-3-yl]-4,6-dimethylthieno[2,3-b]pyridine-2-carboxamide] was run?
**A.** 1 to 50 nM

**Q.** How did the IC50 turn out when `COC[C@H]1CN(c2cc(F)c3c(c2F)OC[C@H](NC(=O)c2sc4nc(C)cc(C)c4c2N)C3)C[C@H]1N` [Example 278, 3-amino-N-[(3R)-7-[(3S,4S)-3-amino-4-(methoxymethyl)pyrrolidin-1-yl]-5,8-difluoro-3,4-dihydro-2H-1-benzopyran-3-yl]-4,6-dimethylthieno[2,3-b]pyridine-2-carboxamide] was run?
**A.** 1 to 50 nM

**Q.** For `CO[C@@]1(C)CN(c2ccc3c(n2)CC[C@H](NC(=O)c2sc4nc(C)cnc4c2N)C3)C[C@@H]1N` [Example 279, 7-amino-N-[(6S)-2-[(3S,4S)-4-amino-3-methoxy-3-methylpyrrolidin-1-yl]-5,6,7,8-tetrahydroquinolin-6-yl]-3-methylthieno[2,3-b]pyrazine-6-carboxamide], which IC50 is on record?
**A.** 200 to 2000 nM

**Q.** Which IC50 does the source give for `CO[C@]1(C)CN(c2ccc3c(n2)CC[C@H](NC(=O)c2sc4nc(C)cnc4c2N)C3)C[C@H]1N` [Example 280, 7-amino-N-[(6S)-2-[(3R,4R)-4-amino-3-methoxy-3-methylpyrrolidin-1-yl]-5,6,7,8-tetrahydroquinolin-6-yl]-3-methylthieno[2,3-b]pyrazine-6-carboxamide] here?
**A.** 200 to 2000 nM
